Experimental data: patent US12403114B2, “Cannabinoid acid ester compositions and uses thereof” (EPM (IP), INC., priority 2019, dated 2025)
“Also recorded” adds a separate entry of the source.

Tested on: Human hepatoma HepG2 cells
Experiment: Fat accumulation in hepatocytes (Nile-Red)
Format: cell-based
Settings: 0.3 mM oleic:palmitic acids, 24 hr; EPM-301 effect at high (50 and 10 μM) and low (0.025 and 0.001 μM) concentrations, bell-shaped (FIG. 37, 38)
Protocol: An in vitro model of fat accumulation in hepatocytes was used to test whether compounds EPM-301 and EPM-302 have the ability to reduce lipid accumulation in hepatocytes Human hepatoma HepG2 cells were maintained at 37° C. in 5% CO2 in DMEM medium supplemented with 10% FCS, 2 mM 1-glutamine, 1 mM sodium pyruvate, 100 U/mL penicillin and […] streptomycin. Free fatty acids (2:1, molar ratio, oleic and palmitic acids) were mixed with bovine serum albumin (BSA). Cells were incubated with fatty acid-BSA complex in FCS-free culture medium at 0.3 mM final concentration of fatty acid and 1% of BSA. Control cell cultures were incubated with medium containing the vehicle. Compounds were tested in a range of concentrations in the presence of fatty acids. After 24 hr of incubation with the compounds, the cells were washed, incubated with 1 μg/mL mixture of Nile-Red/Hoechst solution for 15 mins at 37° C. protected from light. Fluorescence was measured by the Cytation-3 plate reader at ex:488 nm/em:550 nm and ex:350 nm/em:461 nm for Nile-Red and Hoechst, respectively. Results were normalized to total protein levels of each well, and presented as a change in the accumulation of lipids in comparison with Vehicle-treated group.
[…] EPM-301 at 50 μM was used as positive control.
Values are expressed as mean±SEM. […]

`C=C(C)[C@@H]1CCC(C)=CC1c1c(O)cc(CCCCC)c(C(=O)OC)c1O` (stereo partly shown) [EPM-301, cannabidiolic acid methyl ester] was tested, and the “amount of fat accumulation in hepatocytes” value was “significantly reduce; also recorded: ineffective”.
